Earlier results in patent publication US10499664B2, “Fish feed formulation of Hypericum perforatum, Rosamarinus officianalis or a mixture thereof” (UNIVERSIDAD DE SANTIAGO DE CHILE, priority 2015, dated 2019).

Assays:
Conditions in all cases: pre-treatment, inflamed mouse ears
TNF-α = system: TNF-α
IL-1β = system: IL-1β
COX-2 = system: COX-2

SMILES	TNF-α gene expression (TNF-α)	IL-1β gene expression (IL-1β)	COX-2 inhibition (COX-2)
CC(C)c1cc2c(c(O)c1O)[C@@]1(C(=O)O)CCCC(C)(C)[C@@H]1CC2 [carnosic acid]	reducing their expression	reducing their expression	selectively inhibiting
CC(C)c1cc2c(c(O)c1O)[C@@]13CCCC(C)(C)[C@@H]1C[C@@H]2OC3=O [carnosol]	reducing their expression	reducing their expression	selectively inhibiting
